The values below are quoted from earlier work in patent publication US20250311721A1, “UREA COMPLEXES OF ACTIVE INGREDIENTS” (priority 2022, published 2025).

Structures are written as SMILES.

Regarding `O=C(NCCc1ncc(C(F)(F)F)cc1Cl)c1ccccc1C(F)(F)F` [Fluopyram], the “solubility in DMSO” value (DMSO) is > 250 mg/mL. In addition, the “solubility in ethyl acetate” value (ethyl acetate) was > 250 mg/mL.
